Measured values: US12054495B2, “Substituted macrocyclic compounds and related methods of treatment” (Alkermes, Inc., priority 2019, dated 2024)

Assays:
Format in all cases: in vitro ADME
MDR1 = test: MDCK-MDR1 permeability assay; conditions: dog; for Papp A→B at 2 h, 3 μM: MDCK-MDR1, MDCK-MDR1 cells, apical to basolateral, 3 μM test compound, 2 hours at 37 degrees C; for efflux ratio at 2 h, 3 μM: MDCK-MDR1, Papp (basolateral to apical) divided by Papp (apical to basolateral), MDCK-MDR1 cells, read-out: Efflux ratio (ER)
Protocol: The bidirectional permeability (Apical to Basal and Basal to Apical directions) of test compounds in MDCK-MIDR1 cells were evaluated using MDCK-MIDR1 cells seeded in Solvo PreadyPort™ MIDCK 96-well plate. Once the plate was received from ReadyCell (Barcelona, Spain), it was treated as per PreadyPort™ user's manual.
For the Apical to Basolateral (A→B) permeability, 80 μL of test compound (3 μM) co-dosed with LY (Lucifer Yellow) (100 μM) in HBSS (Hank's Balanced Salt Solution) assay buffer was added to the donor side (A) while 250 μL of HBSS buffer was added to the receiver side (B). For the Basolateral to Apical (B→A) permeability, 255 μL of test compound (3 μM) in HBSS assay buffer was added to the donor side (B) while 75 μL of HBSS buffer containing LY (100 μM) was added to the receiver side (A).
The plate was placed in an incubator set at 37 degrees C. After 10 minutes of pre-warming, 5 μL aliquot was taken from donor compartment and set aside as the dosing solution. The MDCK-MDR1 incubation plate was placed back into the incubator for 2 hours of incubation at 37 degrees C. After 2 hours of incubation, 25 μL and 5 μL aliquots were removed from the receiver and donor sides, respectively. To the 5 μL aliquots taken from the donor sides (before and after a 2-hour incubation) were diluted with 20 μL of the HBSS buffer. All samples were mixed with 150 μL with acetonitrile containing internal standard (IS) and 200 μL water, and analyzed by LC-MS/MS.
The apparent permeability (Papp) was calculated using the following formula: Papp=dQ/dt×1/A×C0 where: • dQ/dt: amount of translocated material over incubation time (nmol/s) • A: area of insert (0.14 cm^2 for PreadyPort™ MDR1-96) • C0: initial concentration of product applied in apical (A→B) or basal (B→A) compartment (nmol/mL)
The efflux ratio (ER) was measured by dividing the Papp (basolateral to apical direction) by Papp (apical to basolateral direction). It is a general measure of the involvement of active processes. An ER>2 is considered positive for active transport.
The data reported in Table 3 were obtained according to the MDCK-MIDR1 permeability assay described above.

human hepatocytes = test: Hepatocytes stability assay (human hepatocytes); conditions: scaled hepatic clearance divided by liver blood flow, fu assumed unity
Protocol: (§1) In vitro metabolic stability was assessed using cryopreserved hepatocytes from male Sprague Dawley rats and a pool of 50 mixed gender humans (BioIVT, Baltimore, MD). The incubation mixtures were prepared by mixing 250 μL of pre-warmed KHB (Krebs-Henseleit buffer) containing 2×10^6 cell/mL of hepatocytes with 250 μL of pre-warmed KHB buffer containing 2 μM of test compounds in a 48-well plate, giving a final concentration of 1 μM test compound (0.1% DMSO) and 1×10^6 cell/mL of hepatocytes. The reaction mixture was incubated at 37 degrees C. A 50 μL aliquot of incubation mixture was taken at time points (0, 15, 30, 60, 120 and 240 minutes) and transferred into a 96-well plate containing 300 μL ice-cold acetonitrile (containing 30 ng/mL of labetalol and 10 ng/mL of Naltrexone-d3 as internal standards) and immediately placed in ice to terminate the reaction. Samples were centrifuged, and supernatants were transferred into 96-well plates for liquid chromatography with tandem mass spectrometry (LC-MS/MS) analysis to monitor the depletion of the test compound.
(§2) Data was calculated as percent remaining by assuming zero-minute time point peak area ratio (analyte/IS) as 100% and dividing remaining time point peak area ratios by zero-minute time point peak area ratio. Data were fitted to a first-order decay model to determine half-life. From a plot of log (ln) peak area against time, the slope of the line was determined. Subsequently, half-life (T1/2) and intrinsic clearance (CLint) were calculated using the equations below: Elimination rate constant (k)=(−slope) Half-life (T1/2)min=0.693/k Intrinsic Clearance (CLint) (mL/min/million cells)=(V×0.693)/T1/2 V=incubation volume mL/number of cells The in vitro T1/2 was converted to in vitro intrinsic clearance (CLint,hep) in units of mL/min/kg using the formula shown below:
(§3) [formula] The in vitro intrinsic clearance (CLint,hep) was scaled to in vivo hepatic clearance (CL,hep) using the following equation which was adapted from a well-stirred model.
(§4) [formula] where Q is the liver blood flow and fu is the fraction unbound (assumed to be unity in this case). All parameters used in the calculation are shown below (Table 4).
(§5) The extraction ratio (ER) was calculated by dividing the hepatic clearance of a compound to the liver blood flow. The data reported in Table 5 were obtained according to the human hepatocytes stability assay described above.

[1] = Hepatocytes stability assay (human hepatocytes); conditions: both sexes, cryopreserved hepatocytes, 1 μM test compound, 1×10^6 cell/mL, 37 degrees C, read-out: CLint (μL/min/million cells)
Protocol: as §1, §2, §3, §4, §5

| Papp A→B at 2 h, 3 μM (MDR1) | efflux ratio at 2 h, 3 μM (MDR1) | Extraction Ratio (ER) (human hepatocytes) | hepatocyte CLint at 1 μM [1] | Compound |
| --- | --- | --- | --- | --- |
| 0.15 ×10⁻⁶ cm/s | > 100 | 0.67 | 14 µL/min/1e6 cells | CS(=O)(=O)N[C@H]1CCCN2C(=O)CCOc3ccccc3C3CCC(CC3)OCC12 (stereo partly shown) [Compound 1] |
| 0.8 ×10⁻⁶ cm/s | 34 | 0.87 | 43 µL/min/1e6 cells | CS(=O)(=O)N[C@H]1CCCN2C(=O)CCCCOc3ccccc3C3CCC(CC3)OCC12 (stereo partly shown) [Compound 3] |
| 0.47 ×10⁻⁶ cm/s | 97 | 0.81 | 28 µL/min/1e6 cells | CS(=O)(=O)N[C@H]1CCCN2C(=O)CCCOc3ccccc3C3CCC(CC3)OCC12 (stereo partly shown) [Compound 4] |
| 21 ×10⁻⁶ cm/s | 0.66 | 0.87 | 45 µL/min/1e6 cells | CS(=O)(=O)N[C@H]1CCCN2CCOc3ccccc3C3CCC(CC3)OCC12 (stereo partly shown) [Compound 6] |
| 0.29 ×10⁻⁶ cm/s | 15 | 0.55 | 8.3 µL/min/1e6 cells | CS(=O)(=O)N[C@H]1CCCN2C(=O)CCc3ccccc3C3CCC(CC3)OCC12 (stereo partly shown) [Compound 10] |
| 2.2 ×10⁻⁶ cm/s | 5.5 | 0.83 | 33 µL/min/1e6 cells | CS(=O)(=O)N[C@H]1CCCN2C(=O)COc3c(F)cccc3C3CCC(CC3)OCC12 (stereo partly shown) [Compound 11] |
| 26 ×10⁻⁶ cm/s | 0.55 | 0.88 | 47 µL/min/1e6 cells | CS(=O)(=O)N[C@H]1CCCN2CCOc3c(F)cccc3C3CCC(CC3)OCC12 (stereo partly shown) [Compound 13] |
| 3.9 ×10⁻⁶ cm/s | 2 | 0.77 | 23 µL/min/1e6 cells | CS(=O)(=O)N[C@H]1CCN2C(=O)COc3ncccc3C3CCC(CC3)OCC12 (stereo partly shown) [Compound 18] |
| 2 ×10⁻⁶ cm/s | 9.5 | 0.91 | 66 µL/min/1e6 cells | CC1(C)Oc2ccccc2C2CCC(CC2)OCC2[C@@H](NS(C)(=O)=O)CCCN2C1=O (stereo partly shown) [Compound 36] |
| 24 ×10⁻⁶ cm/s | 0.49 | 0.88 | 47 µL/min/1e6 cells | CS(=O)(=O)N[C@H]1CCN2CCOc3ccccc3C3CCC(CC3)OCC12 (stereo partly shown) [Compound 39] |
| 3.6 ×10⁻⁶ cm/s | 5.1 | 0.91 | 65 µL/min/1e6 cells | CS(=O)(=O)N[C@H]1CCCN2C(=O)C(F)(F)Oc3ccccc3C3CCC(CC3)OCC12 (stereo partly shown) [Compound 40] |
| 11 ×10⁻⁶ cm/s | 1.3 | 0.89 | 52 µL/min/1e6 cells | CS(=O)(=O)N[C@H]1CCN2C(=O)COc3c(F)cccc3C3CCC(CC3)OCC12 (stereo partly shown) [Compound 42] |
| 12 ×10⁻⁶ cm/s | 1.1 | 0.83 | 34 µL/min/1e6 cells | CS(=O)(=O)N[C@H]1CCN2C(=O)COc3c(F)cc(F)cc3C3CCC(CC3)OCC12 (stereo partly shown) [Compound 43] |
| 6.3 ×10⁻⁶ cm/s | 1.9 | 0.91 | 65 µL/min/1e6 cells | CC1(C)CN2CCC[C@H](NS(C)(=O)=O)C2COC2CCC(CC2)c2ccccc2O1 (stereo partly shown) [Compound 44] |
| 1.2 ×10⁻⁶ cm/s | 12 | 0.87 | 44 µL/min/1e6 cells | CS(=O)(=O)N[C@H]1CCCN2C(=O)C(F)(F)Oc3c(F)cc(F)cc3C3CCC(CC3)OCC12 (stereo partly shown) [Compound 52] |
| 2.8 ×10⁻⁶ cm/s | 7.9 | 0.92 | 19 µL/min/1e6 cells | CS(=O)(=O)N[C@H]1CCN2C(=O)C(F)(F)Oc3ccccc3C3CCC(CC3)OCC12 (stereo partly shown) [Compound 53] |
| 2.6 ×10⁻⁶ cm/s | 7.3 | 0.89 | 56 µL/min/1e6 cells | CS(=O)(=O)N[C@H]1CCN2C(=O)C(F)(F)Oc3c(F)cc(F)cc3C3CCC(CC3)OCC12 (stereo partly shown) [Compound 54] |
| 0.16 ×10⁻⁶ cm/s | 51 | 0.24 | 2.1 µL/min/1e6 cells | CS(=O)(=O)N[C@H]1CCCN2C(=O)COc3ccc(Br)cc3C3CCC(CC3)OCC12 (stereo partly shown) [Compound 57] |
| 1.5 ×10⁻⁶ cm/s | 10 | 0.90 | 62 µL/min/1e6 cells | CS(=O)(=O)N[C@H]1CCCN2CCOc3c(F)cc(F)cc3C3CCC(CC3)OCC12 (stereo partly shown) [Compound 58] |
| 2 ×10⁻⁶ cm/s | 5.5 | 0.83 | 33 µL/min/1e6 cells | CS(=O)(=O)N[C@H]1CCCN2CCOc3ccc(Cl)cc3C3CCC(CC3)OCC12 (stereo partly shown) [Compound 61] |
| 0.83 ×10⁻⁶ cm/s | 30 | 0.57 | 9 µL/min/1e6 cells | CS(=O)(=O)N[C@H]1CCCN2C(=O)COc3ncc(F)cc3C3CCC(CC3)OCC12 (stereo partly shown) [Compound 64] |
| 15 ×10⁻⁶ cm/s | 0.5 | 0.84 | 34 µL/min/1e6 cells | CS(=O)(=O)N[C@H]1CCCN2CCOc3ncccc3C3CCC(CC3)OCC12 (stereo partly shown) [Compound 65] |
